# Values of other authors as cited in patent US12133911B2, “Formulations to achieve rapid dissolution of drug from spray-dried dispersions in capsules” (Capsugel Belgium NV, priority 2015, dated 2024).
# Settings: molality (moles of solute per unit mass) of a saturated solution in water
row,SMILES,Water Solub. [mol/kg]
1,O=C(CO)[C@@H](O)[C@H](O)[C@H](O)CO [fructose],3.89
2,"[Cl-].[K+] [KCl, potassium chloride]",9.40

# Results, then the compound that gave them:
row,Water Solub. [mol/kg],SMILES
1,0.99,OC[C@@H](O)[C@@H](O)[C@H](O)[C@H](O)CO [mannitol]
2,4.11,OC[C@@H](O)[C@H](O)[C@@H](O)CO [xylitol]
3,4.56,OC[C@@H](O)[C@@H](O)[C@H](O)[C@@H](O)CO [sorbitol]
